Measured values: article PMC12040169 (PLOS Biology, 2025)

Test: in vitro
Settings: human, hela cells, % viability
For `COc1nn(CC(=O)NC2(C)CCC2)c(=O)c2ccccc12` [CBK281603], the viability at 28.5 h, 10 µM was 83.2%. For `COc1ccc(-c2nnc(SCC(=O)c3ccccc3)o2)cc1` [CBK069390], the viability at 28.5 h, 10 µM was 100%. Compound `COCC(=O)NC(Cc1cccs1)c1nc(C)cs1` (centres unmarked) [CBK285004] has a viability at 28.5 h, 10 µM of 87.3%. Work on `N#Cc1c2c(c(-c3ccccc3)[nH]c1=O)CCCC2` [CBK287905] yielded a viability at 28.5 h, 10 µM of 91.6%. `CC[C@H]1CN(C(=O)Nc2ccccc2)CC[C@H]1CC(=O)N(C)CC#N` [CBK288777] showed a viability at 28.5 h, 10 µM of 101%. Compound `COc1cccc2ncn(C(C)c3nc(C)sc3C)c(=O)c12` (centres unmarked) [CBK306570] has a viability at 28.5 h, 10 µM of 109%. `O=[N+]([O-])c1nn(-c2ccc(Cl)cc2)[n+]([O-])c1NCc1ccccn1` [CBK268270] gave a viability at 28.5 h, 10 µM of 96.6%. `O=C(CN1C(=O)N2CCCN=C2c2ccccc21)NC1CCCCC1` [CBK284396] gave a viability at 28.5 h, 10 µM of 88.8%. For `CC(=O)Nc1ccccc1/C=C/c1ccc2c(C)cc(C)c(O)c2n1` [CBK261937], the viability at 28.5 h, 10 µM was 106%. `CCOc1ccccc1CNc1ccc(C2c3ccsc3CCN2C(C)=O)cc1` (centres unmarked) [CBK286459] showed a viability at 28.5 h, 10 µM of 104%. In the case of `Cc1cccn2c(=O)cc(CN3CCC(c4cn[nH]c4)CC3)nc12` [CBK305764], the viability at 28.5 h, 10 µM is reported as 101%. Compound `Cc1ccc(NC(=O)CSc2cc(-n3nc(C)cc3C)ncn2)cc1` [CBK287820] has a viability at 28.5 h, 10 µM of 89%. Compound `COc1ccc(Oc2nccnc2N2CCN(Cc3ccc([N+](=O)[O-])cc3)CC2)cc1OC` [CBK083046T] has a viability at 28.5 h, 10 µM of 86.4%. `CC(C)(C)c1ccnc(N[C@H]2CO[C@H]3[C@@H]2OC[C@@H]3NC(=O)c2cccs2)n1` [CBK289520] showed a viability at 28.5 h, 10 µM of 94.8%. Compound `CN1CCN(CCC(=O)N/N=C/c2c[nH]c3ccccc23)CC1` [CBK261502] has a viability at 28.5 h, 10 µM of 94.7%. Compound `CN(C)c1nc(N)nc(COc2ccccc2F)n1` [CBK288236] has a viability at 28.5 h, 10 µM of 105%. Work on `CC(Nc1cccc2ccccc12)C(=O)N/N=C/c1ccc([N+](=O)[O-])cc1` (centres unmarked) [CBK262676] yielded a viability at 28.5 h, 10 µM of 84.2%. In the case of `O=C(c1cccnc1)N1CCC(c2cc3ccccc3cn2)CC1` [CBK284891], the viability at 28.5 h, 10 µM is reported as 101%. For `Nc1nc(N)c2ncn([C@@H]3O[C@H](CO)[C@H](O)C3O)c2n1` (some centres unmarked) [CBK201275], the viability at 28.5 h, 10 µM was 102%. With `Cn1c(=O)n(CC(=O)NC2(C)C3CCC(C3)C2(C)C)c2cccnc21` (centres unmarked) [CBK283330] the viability at 28.5 h, 10 µM was 84.9%. `Cc1cc2cc(CN(CC3CCCO3)C(=O)C3CC3)c(Cl)nc2cc1C` (centres unmarked) [CBK109881] gave a viability at 28.5 h, 10 µM of 101%. `CCNC(=O)N1CC2(CCN(CCn3cccc3)CC2)c2ccccc21` [CBK143945] gave a viability at 28.5 h, 10 µM of 93%. For `CN(C)S(=O)(=O)N1CCN(c2ccc([N+](=O)[O-])c(NC3CC3)c2)CC1` [CBK265158], the viability at 28.5 h, 10 µM was 87%. Work on `CNS(=O)(=O)c1ccc(C(C)NC(=O)N2CCN3CCC2CC3)cc1` (centres unmarked) [CBK304765] yielded a viability at 28.5 h, 10 µM of 92.2%. For `Cc1ccc(C(=O)COC(=O)C(Cc2ccccc2)N2C(=O)c3cc(Cl)c(Cl)cc3C2=O)cc1` (centres unmarked) [CBK264176], the viability at 28.5 h, 10 µM was 109%. Work on `CN1CCCCC[C@@H]2[C@@H]1[C@H](c1ccccc1)CN2C(=O)CN1CCCCCC1=O` [CBK285524] yielded a viability at 28.5 h, 10 µM of 87.5%. `O=C(NCCc1cccnc1)Nc1ccc(CN2CCCC2=O)cc1` [CBK306461] gave a viability at 28.5 h, 10 µM of 80%. Work on `NS(=O)(=O)c1ccc(CNC(=O)C(Sc2ccccc2)c2ccccc2)cc1` (centres unmarked) [CBK264355] yielded a viability at 28.5 h, 10 µM of 91.5%. In the case of `COc1ccc(-n2ncc3c2CC(C)(C)CC3NC(=O)C2CC2)cc1` (centres unmarked) [CBK282337], the viability at 28.5 h, 10 µM is reported as 91.1%. In the case of `CCC(=O)N[C@H]1CC[C@]2(CC1)CNC(=O)c1ccccc1O2` [CBK281681], the viability at 28.5 h, 10 µM is reported as 106%. `O=C(O)[C@H]1CN(C(=O)c2cccs2)C[C@@H]1c1ccccc1F` [CBK283819] gave a viability at 28.5 h, 10 µM of 87.1%. With `Cc1ccc(NC(=O)N(C)C2CCN(C)C2)cc1` (centres unmarked) [CBK156023] the viability at 28.5 h, 10 µM was 103%. With `O=C(O)C1CCCCC1C(=O)N1CCc2ccccc2C1` (centres unmarked) [CBK286594] the viability at 28.5 h, 10 µM was 85%. With `O=C(C1CC2C=CC1C21CC1)N1CCN(c2nccs2)CC1` (centres unmarked) [CBK281640] the viability at 28.5 h, 10 µM was 90.4%. For `CCC(NS(=O)(=O)c1ccc(OC)cc1)C(=O)O` (centres unmarked) [CBK264509], the viability at 28.5 h, 10 µM was 100%.
